Data on 2 compounds can be found in ChEMBL document CHEMBL4402575.

The target in this assay is Transthyretin (Homo sapiens) (UniProt P02766). The assay can be described thus: Stabilization of wild type human transthyretin expressed in Escherichia coli BL21(DE3) Star assessed as fibril formation at 50 uM pre-incubated with transthyretin before amyloid beta (1 to 42) addition by ThT fluorescence assay.

For the compound `O=C(O)c1cc(-c2ccc(F)cc2F)ccc1O`, the Activity was found to be 26%.
Take `O=C(O)c1ccc2nc(-c3cc(Cl)cc(Cl)c3)oc2c1`: the Activity is 24%.
